Measurements published in patent US4992442A, “Pyrrolo(3,2-e)pyrazolo(1,5-a)pyrimidine derivative and medicine comprising the same” (Pola Chemical Industries Inc., Japan, priority 1988, dated 1991).

Tests used:
[1] = tested on: coronary artery; test: Vasodilative activity, Magnus method, dog coronary artery contracted with PGF2 α; details: Canis lupus familiaris; PGF2 α 5×10^-6 M; read-out: 50% Contraction-inhibitive Concentrations, Coronary Artery, PGF2 α
Procedure: (§1) A bastard, male, adult dog weighing about 8-10 kg was anesthetized with pentobarbital sodium (25 mg/kg, i.v.) and killed by bleeding. Its basilar and coronary arteries were immediately extracted. […] Static tensions of the ring were isometrically measured and recorded.
(§2) Test compounds were accumulatively given to specimens contracted with 1×10^-7 M (final concentration) U-46619 to the final concentration of 1×10^-7 to 1×10^-4 M to investigate their vasodilative activities.
(§3) The vasodilative activity and coronary blood flow increase activity were respectively measured according to the following Methods 1 and 2.
(§4) The same Magnus method was used as in Experimental Example 1, except that instead of 1×10^-7 M (final concentration) U-46619, 5×10^-6 M (final concentration), PGF2 α or 60 mM potassium chloride was used.

[2] = tested on: basilar artery; test: Vasodilative activity, Magnus method, dog basilar artery contracted with potassium chloride; details: Canis lupus familiaris; 60 mM potassium chloride; read-out: 50% Contraction-inhibitive Concentrations, Basilar Artery, KCl
Procedure: as §1, §2, §3, §4

[3] = Acute toxicity test, oral, mice; details: mouse, in vivo, ICR male mice, 14 days observation
Procedure: An acute toxicity test on compounds of the present invention was performed according to the following method.
ICR male mice were purchased at 4 weeks of age and fed for 10 days before testing. The test compound suspended in 1% methylcellullose solution was orally administered using a metallic gaster probe at a dose of 0.1 ml (as the test compound) per […] of body weight. The mice were fasted for 15 hours before the administration. Observation was made for 14 days after the administration, and the LD50 value was determined from the survival rate by the Richfield Wilcoxin method.

[4] = tested on: basilar artery; test: Vasodilative activity, Magnus method, dog basilar artery contracted with PGF2 α; details: Canis lupus familiaris; PGF2 α 5×10^-6 M; read-out: 50% Contraction-inhibitive Concentrations, Basilar Artery, PGF2 α
Procedure: as §1, §2, §3, §4

[5] = tested on: coronary artery; test: Vasodilative activity, Magnus method, dog coronary artery contracted with potassium chloride; details: Canis lupus familiaris; 60 mM potassium chloride; read-out: 50% Contraction-inhibitive Concentrations, Coronary Artery, KCl
Procedure: as §1, §2, §3, §4

[6] = tested on: coronary blood flow; test: Coronary blood flow increase activity in anesthetized dog; assay type: in vivo; details: maximum flow relative to before administration
Text: as §3
The heart was exposed by an incision into pericardium through the left quartus costa rib. About 1 cm of a coronary vessel was peeled off from the surrounding tissues at about 1 cm from the left ramus circumplexus and a blood flow meter probe was installed for measuring the coronary blood flow. Left ventricle pressure, heart rate, right femoral artery pressure, and lower extremity blood flow rate were monitored. All test compounds were intravenously administered.
The maximum coronary blood flow rates achieved after the administration as a percentage of the blood flow before administration was taken as the coronary blood flow increase activity.

[7] = tested on: trachea; test: Tracheal expansion activity against histamine (His) induced tracheal contraction; design: species or system Hartley guinea pig; details: for IC50: Cavia porcellus, His 1×10^-6 M, read-out: 50% Contraction-inhibitive Concentration, His Contraction; for Ratio of Effectiveness, His Contraction: reverse ratio of 50% contraction-inhibitive concentration to that of theophylline
Text: (§6) Tracheal expansion activity against tracheal contraction induced by acetyl choline (ACh) and histamine (His)
(§7) A Hartley guinea pigs (male, weight: 400-500 g) was killed by bleeding and its trachea was immediately extracted. […] Static tensions was isometrically measured.

[8] = tested on: trachea; test: Tracheal expansion activity against acetyl choline (ACh) induced tracheal contraction; design: species or system Hartley guinea pig; details: for IC50: Cavia porcellus, ACh 1×10^-6 M, read-out: 50% Contraction-inhibitive Concentration, ACh Contraction; for Ratio of Effectiveness, ACh Contraction: reverse ratio of 50% contraction-inhibitive concentration to that of theophylline
Text: as §6, §7

[9] = tested on: coronary artery; test: Vasodilative activity, Magnus method, dog coronary artery ring contracted with U-46619; details: for IC50: Canis lupus familiaris, U-46619 1×10^-7 M, read-out: 50% Contraction-inhibitive Concentrations; for vasodilative activity, times stronger than trapidil: U-46619, relative to trapidil
Procedure: (§5) Vasodilative activity of the compound of the present invention was measured by the Magnus method.
as §1, §2

[10] = tested on: basilar artery; test: Vasodilative activity, Magnus method, dog basilar artery ring contracted with U-46619; details: for IC50: Canis lupus familiaris, U-46619 1×10^-7 M, read-out: 50% Contraction-inhibitive Concentrations; for vasodilative activity, times stronger than trapidil: U-46619, relative to trapidil
Procedure: as §5, §1, §2

Row | SMILES | IC50 [1] [µM] | IC50 [2] [µM] | LD50 at 336 h [3] [mg/kg] | IC50 [4] [µM] | IC50 [5] [µM] | Rate of Coronary Blood Flow Increase, 50 μg/kg (iv) [6] [%] | Rate of Coronary Blood Flow Increase, 100 μg/kg (iv) [6] [%] | IC50 [7] [µM] | Ratio of Effectiveness, His Contraction [7] | IC50 [8] [nM] | Ratio of Effectiveness, ACh Contraction [8] | IC50 [9] [nM] | vasodilative activity, times stronger than trapidil [9] [times] | IC50 [10] [nM] | vasodilative activity, times stronger than trapidil [10] [times]
1 | Cc1nc2c(C#N)cnn2c2c1CCN2CC(C)C [Compound No. 4, 8-iso-butyl-3-cyano-6,7-dihydro-5-methyl-8H-pyrrolo [3,2-e]pyrazolo[1,5-a]pyrimidine] | 25 | 43 | ≥ 1000 | > 100 | 100 | 20.4 ± 6.3 | 52.8 ± 21.1 |  |  |  |  |  |  |  | 
2 | Cc1nc2ccnn2c2c1CCN2C(C)(C)C [Compound No. 11, 8-tert-butyl-6,7-dihydro-5-methyl-8H-pyrrolo[3,2-e]pyrazolo[1,5-a]pyrimidine] | 3.2 | 10 | ≥ 1000 | 7.9 | 16 |  |  | 6.3 | 1.0 |  |  |  |  |  | 
3 | CCCCN1CCc2c(C)nc3c(C#N)cnn3c21 [Compound No. 3, 8-butyl-3-cyano-6,7-dihydro-5-methyl-8H-pyrrolo [3,2-e]pyrazolo[1,5-a]pyrimidine] | > 100 | 34 | ≥ 1000 | > 100 | > 100 | 11.5 ± 4.6 | 37.9 ± 16.3 | 30 | 2.1 |  |  |  |  |  | 
4 | Cc1nc2c(C#N)cnn2c2c1CCN2N1CCOCC1 [Compound No. 10, 3-cyano-6,7-dihydro-5-methyl-8-(4-morpholyl)-8H-pyrrolo[3,2-e]yrazolo[1,5-a]pyrimidine] | > 100 | > 100 | ≥ 1000 | > 100 | > 100 |  |  | 5 | 1.3 | 1300 | 3.9 |  |  |  | 
5 | CCC(C)N1CCc2c(C)nc3c(C#N)cnn3c21 (centres unmarked) [Compound No. 5, 8-sec-butyl-3-cyano-6,7-dihydro-5-methyl-8H-pyrrolo [3,2-e]pyrazolo[1,5-a]pyrimidine] | 3.2 | > 100 | ≥ 1000 | 2.5 | > 100 | 8.2 ± 3.7 | 27.3 ± 5.2 | 0.4 | 15.8 | 500 | 10.0 |  |  |  | 
6 | Cc1nc2c(C#N)cnn2c2c1CCN2C(C)(C)C [Compound No. 1, 8-tert-butyl-3-cyano-6,7-dihydro-5-methyl-8H-pyrrolo[3,2-e]pyrazolo[1,5-a]pyrimidine] | 1.3 | > 100 | ≥ 2000 | 1.6 | > 100 | 51.9 ± 11.9 | 181.6 ± 27.8 | 1.3 | 4.9 | 200 | 25.0 | 1600 | 39 | 2700 | 37
7 | Cn1c(=O)c2[nH]cnc2n(C)c1=O [Theophylline, reference compound] |  |  |  |  |  |  |  | 6.3 |  | 5000 |  |  |  |  | 
8 | Cc1nc2c(C#N)cnn2c2c1CCN2CC1CCCCC1 [Compound No. 9, 3-cyano-8-cyclohexylmethyl-6,7-dihydro-5-methyl-8H-pyrrolo[3,2-e]pyrazolo[1,5-a]pyrimidine] | > 100 | > 100 | ≥ 1000 | > 100 | > 100 |  |  |  |  | 790 | 6.3 |  |  |  | 
9 | Cc1nc2c(C#N)cnn2c2c1CCN2C1CCCC1 [Compound No. 8, 3-cyano-8-cyclopentyl-6,7-dihydro-5-methyl-8H-pyrrolo [3,2-e]pyrazolo[1,5-a]pyrimidine] | 0.2 | > 100 | ≥ 1000 | > 100 | > 100 |  |  | 1 | 6.3 | 130 | 38.5 |  |  |  | 
10 | CCCCCN1CCc2c(C)nc3c(C#N)cnn3c21 [Compound No. 6, 3-cyano-6,7-dihydro-5-methyl-8-pentyl-8H-pyrrolo [3,2-e]pyrazolo[1,5-a]pyrimidine] | > 100 | > 100 | ≥ 1000 | > 100 | > 100 | 7.3 ± 3.1 | 15.4 ± 5.7 | 16 | 0.4 | 3200 | 1.6 |  |  |  | 
11 | CCCCCCN1CCc2c(C)nc3c(C#N)cnn3c21 [Compound No. 7, 3-cyano-6,7-dihydro-8-hexyl-5-methyl-8H-pyrrolo [3,2-e]pyrazolo[1,5-a]pyrimidine] | > 100 | 85 | ≥ 1000 | > 100 | > 100 |  |  | 13 | 0.5 | 6300 | 0.8 |  |  |  | 
12 | Cc1nc2c(C#N)c(C)nn2c2c1CCN2C(C)(C)C [Compound No. 2, 8-tert-butyl-3-cyano-6,7-dihydro-2,5-dimethyl-8H-pyrrolo[3,2-e]pyrazolo[1,5-a]pyrimidine] |  |  | ≥ 2000 |  |  |  |  |  |  |  |  | 1800 | 35 | 2700 | 37
